# Where “and” joins values, the source holds several entries; their conditions need not be identical. Identical values can stand only once. Counter-ions that a name gives are not always drawn.
row,melting point,SMILES
1,163 °C and 162 °C,"COc1cc(OC)cc(C(CCNC(C)C)c2ccc3ncc(-c4cnn(C)c4)nc3c2)c1 (single isomer, unassigned) (as salt: oxalic acid salt) [Compound 19a]"
2,172 °C,"COc1cc(OC)cc(C(CCNC(C)C)c2ccc3ncc(-c4cnn(C)c4)nc3c2)c1 (single isomer, unassigned) (as salt: oxalic acid salt) [Compound 32a]"
3,154 °C,COc1cc(OC)cc(C(CC(C)=O)c2ccc3ncc(-c4cnn(C)c4)nc3c2)c1 (stereo not drawn) [Compound 16]

# Reference: US9290478B2, “Substituted quinoxalines as FGFR kinase inhibitors” (ASTEX THERAPEUTICS LTD, priority 2010, dated 2016)
